The values that follow come from patent US20260258003A1, “SLACK-ACTIVATING COMPOUNDS AND THEIR MEDICAL USE” (Johann Wolfgang Goethe-Universität Frankfurt am Main, priority 2023, published 2026).

SMILES strings stand for the structures. Bounds are passed on as bounds.

In experiment [1] the test system is CFA-induced paw hypersensitivity of mice. In words: CFA-induced inflammatory pain model. It is filed as in vivo. Particulars: 10 mg/kg i.p. 24 h after CFA; 0.5 h and 1 h after administration. Here is the method:
(§1) Animals: Experiments were performed in 8-16 week-old C57BL/6N mice (Charles River, Sulzfeld, Germany) of either sex. The animals were housed under a 12 h light/dark cycle with access to food and water ad libitum. All experiments adhered to the Animal Research: Reporting on In Vivo Experiments (ARRIVE) guidelines and were approved by and conducted in accordance with the regulations of the local Animal Welfare authorities (Regierungspräsidium Darmstadt, Germany; approval number V54-19c20/15-FR/2011). All behavioral studies were conducted during the light cycle of the day at room temperature (20-24° C.) by an observer blinded for the treatment of the animals and/or their genotype.
Behavioral assessment: Mechanical sensitivity of a hindpaw was assessed using a dynamic plantar aesthesiometer (Ugo Basile, Comerio, VA, Italy). Animals were placed on a wire mesh grid and habituated to the apparatus chamber for 1 h. […] The paw withdrawal latency was recorded automatically and calculated as the average of 6-8 measurements. […] Mechanical sensitivity was again determined 24 h after the CFA injection. Immediately thereafter, drug or vehicle (10% cyclodextrine in 0.9% NaCl) were intraperitoneally administered and the mechanical sensitivity was determined over 3 h. […]

Experiment [2] concerns MC903-induced persistent itch behavior of mice. Kind of experiment: MC903 model of persistent itch (skin inflammation). Particulars: i.p. at day 8, vs vehicle. It counts as in vivo. Here is the method:
Similarly, the effect of Compound 6 was also examined in the MC903 model of skin inflammation, which has some characteristics of allergic contact dermatitis and atopic dermatitis^32.
The fur on the dorsolateral aspect of the neck was shaved under brief isoflurane anesthesia. Five days thereafter, 20 μL MC903 (0.2 mM; Calcipotriol, Tocris) solved in absolute ethanol was applied to the skin at the back of the neck in brief anesthesia for 7 consecutive days. On day 8, mice were habituated for 30 min in separate plexiglass cylinders (30 cm diameter). Compounds or vehicle (10% 2-hydroxypropyl-β-cyclodextrine in 0.9% saline) were i.p. administered, and 15 min thereafter spontaneous scratching was recorded over 30 min by videotaping (FIG. 10D). […] These findings are important, because they indicate that Slack activators can ameliorate pruritus that has already established.

Experiment [3] has as its system chloroquine-induced scratching behavior of mice. In words: Chloroquine-induced itch model, topical application of creme. It counts as in vivo. The conditions noted are these: 5% in hydrophilic creme (Basiscreme DAC), topical 30 min prior to s.c. chloroquine. Here is the method:
as §1, with “animals.” for “animals and/or their genotype.”
Drug formulation: A creme formulation of Compound 6 and Compound 21 was prepared by mixing a hydrophilic creme (Basiscreme DAC) with 5% of each Slack activator.
Behavioral assessment: Three to four days before the day of the experiment, the fur on the dorsolateral aspect of the neck was shaved under brief isoflurane anesthesia. On the testing day, Compound 6 creme, Compound 21 creme, or creme vehicle were applied topically on the shaved region of the neck under brief isoflurane anesthesia and the mice were habituated to a Plexiglas cylinder (30 cm in diameter) for 30 min immediately thereafter. […] The number of scratching bouts directed towards the nape of the neck was assessed over 30 min by videotaping.

The test system of experiment [4] is neuropathic pain behavior of mice. Kind of experiment: Spared nerve injury (SNI) model of neuropathic pain. It counts as in vivo. The conditions noted are these: i.p., 28 days after SNI surgery, assessed over 3 h. The method, then:
FIG. 8: Compound 6 and Compound 10 inhibit histamine-independent acute itch behavior and neuropathic pain behavior. (A), (B), Motor function. […] Dotted lines indicate cutoff times. * p<0.05, *** p<0.001, Kruskal-Wallis test. (C)-(G), Acute itch behavior. Compound 6, Compound 10 or vehicle were i.p. administered and 15 min thereafter different pruritogens were s.c. administered into the nape of the neck and the number of scratching bouts was counted over 30 min. In each panel, the time course of scratching behavior is shown on the left and the sum of scratching bouts in 30 min is presented on the right. (C), Compound 6 and Compound 10 inhibited the scratching behavior induced by chloroquine in a dose-dependent manner. (D) Compound 6 inhibited the chloroquine-induced scratching behavior in WT mice but not in Slack^−/− littermates. (E) Compound 6 ameliorated the scratching behavior induced by SLIGRL, (F) but not by histamine. n=7-8 per group. […] Twenty-eight days thereafter, mechanical hypersensitivity of the affected hindpaw (determined using a Dynamic Plantar Aesthesiometer), which is indicated by decreased paw withdrawal latency time, was detected in all mice. Then Compound 10 or vehicle were i.p. administered and the mechanical sensitivity was assessed over 3 h. […]

For another experiment, the target named is T1, muscarine M3 receptor (Homo sapiens, UniProt P20309).
T1 construct: Eurofins SafetyScreen44
Kind of experiment: SafetyScreen44 binding. Particulars: substantial = higher than 50%.

The inhibition is the change of the read-out against control, counted positive when it falls. Higher therefore signals a strong effect.

T1 sequence (P20309 whole entry): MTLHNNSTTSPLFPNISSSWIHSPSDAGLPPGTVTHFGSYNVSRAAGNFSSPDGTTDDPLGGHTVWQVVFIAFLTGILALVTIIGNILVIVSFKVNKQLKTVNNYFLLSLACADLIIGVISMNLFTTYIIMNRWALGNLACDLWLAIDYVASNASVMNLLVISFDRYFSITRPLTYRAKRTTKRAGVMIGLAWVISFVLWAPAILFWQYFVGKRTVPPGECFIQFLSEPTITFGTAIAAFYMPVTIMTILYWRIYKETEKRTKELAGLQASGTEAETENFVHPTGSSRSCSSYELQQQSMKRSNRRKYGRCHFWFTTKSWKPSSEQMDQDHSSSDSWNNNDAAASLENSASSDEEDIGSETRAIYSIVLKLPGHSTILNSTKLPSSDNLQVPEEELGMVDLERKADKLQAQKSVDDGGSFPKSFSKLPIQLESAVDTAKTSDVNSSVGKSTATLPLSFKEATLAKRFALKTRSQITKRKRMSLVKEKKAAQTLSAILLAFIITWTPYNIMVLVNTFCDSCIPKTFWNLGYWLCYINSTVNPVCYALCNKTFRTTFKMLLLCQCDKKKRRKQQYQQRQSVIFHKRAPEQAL

For the compound `O=C(O)COCCN1CCN(C2=Nc3ccccc3Oc3ccc(Cl)cc32)CC1` [Compound 6, 2-(2-(4-(2-Chlorodibenzo[b,f][1,4]oxazepin-11-yl)piperazin-1-yl)ethoxy) acetic acid], in experiment [1], the “paw withdrawal latencies compared to vehicle-treated animals” value is “significantly increased”. For the same compound, in experiment [2], the “head shaking, MC903 model” value was “significantly ameliorated” and the “scratching, MC903 model” value is reported as “significantly ameliorated”. Further, the “chloroquine-induced scratching behavior after topical application” value in experiment [3] is “significantly ameliorated scratching behavior”.

As to `O=c1nc(CN2CCN(C3=Nc4ccccc4Oc4ccc(Cl)cc43)CC2)[nH][nH]1` [Compound 10, 5-((4-(2-Chlorodibenzo[b,f][1,4]oxazepin-11-yl)piperazin-1-yl)methyl)-1,2-dihydro-3H-1,2,4-triazol-3-one], in experiment [4], the “neuropathic pain behavior (mechanical hypersensitivity, paw withdrawal latency)” value is given as “inhibited the neuropathic pain behavior”.

Compound `CN1CCN(C2=Nc3ccccc3Oc3ccc(Cl)cc32)CC1` [Loxapine, 2-chloro-11-(4-methylpiperazin-1-yl)dibenzo[b,f][1,4]oxazepine, reference compound] yielded an inhibition at 10 µM at muscarine M3 receptor of over 50%.
